In patent US20250057959A1, “PHOSPHANE GOLD(I)-N-HETEROCYCLIC CARBENE COMPLEXES FOR TREATING CANCER” (KING FAHD UNIVERSITY OF PETROLEUM AND MINERALS, priority 2023, published 2025):
Entries after “also recorded” stand apart in the source; their conditions may differ.

Legend:
A2780 = test: MTT cell viability assay, A2780; format: cell-based, human
Source text: Human epithelial ovarian cancer A2780 cell line and its cisplatin-resistant clone A2780cis were obtained from Sigma-Aldrich (Milano, Italy). SKOV3 (HTB-77) cells were from the American Type Culture Collection (ATCC). The two cell lines were selected to reflect the two different stages of OvCa and different sensitivity to cisplatin. A2780 cell lines were derived from the ovarian tumor tissue of an untreated patient, while SKOV3 was from the ascitic fluids (after metastasis). Cells were authenticated in the laboratory using PowerPlex 16 HS system (Promega) and GeneMapper ID version 3.2.1 to identify DNA short tandem repeats. Cell lines were cultured in RPMI-1640 medium containing 10% fetal bovine serum (FBS) (Gibco, Thermo Fisher Scientific, U.S.A), 1% (v/v) of penicillin (10,000 units/mL)-streptomycin (10 mg/mL), and 1% (v/v) L-glutamine (200 mM) (all from Sigma- Aldrich) at 37° C. in a 5% CO2 fully humidified atmosphere. A2780cis cells were continuously exposed to 1 μM cisplatin to maintain cisplatin resistance. Adipose-derived stem cells (ADSCs) were purchased from Lonza and maintained in mesenchymal-stem-cell growth medium Bulletkit MSCGM (Lonza, Verviers, Belgium).
4.0×10^3/mL A2780, A2780cis, and SKOV3 cells were seeded in 96-well microplates in 100 μL of culture medium. Cells were allowed to adhere for 24 hours and then were treated in triplicate with increasing concentrations of gold compounds (0-1 μM). Cisplatin was included as a reference drug. Cell viability was evaluated using 3-(4,5-dimethylthiazol-2-yl)-2,5-diphenyltetrazolium bromide (MTT) assay (Sigma-Aldrich) after 72 hours of treatment. Half maximal inhibitory concentrations (IC50) were calculated using the CalcuSyn software version 2 (Biosoft, Ferguson, MO, USA). Fold resistance was calculated as the ratio of the IC50 of the A2780cis to that of the parental cell line A2780.

SKOV3-MCTSs = test: Apoptosis, mitROS and DNA-DSBs in SKOV3-MCTSs; format: cell-based, human
Method: To obtain multiple spheroids, 5.0×10^4/mL SKOV3 cells were seeded in nonadherent conditions on poly-HEMA coated wells for 4 days. After drug treatment, viable cells were evaluated using PrestoBlue cell viability reagent (Thermo Fisher Scientific, Frederick, MD, USA) or alternatively trypsinized to a single cell suspension for further analysis.
2.0×10^5/mL A2780 and A2780cis cells were seeded in 6-well plates in complete medium and treated with complex 6 (0.15 μM and 0.5 μM). Results were detected by flow cytometry on a BD FACSCanto II flow cytometer. Data were analyzed using BD FACSDiva version 8.0.1 software (BD Biosciences) unless otherwise indicated. To evaluate apoptosis, tumor cells were treated for 48 hours and then stained for 15 minutes with FITC annexin-V (Thermo Fisher Scientific) and 7AAD (BD Pharmingen). […] For B-cell lymphoma/leukemia-2 (Bcl-2) and Bcl-2 associated x protein (Bax) evaluation, cells were fixed and permeabilized using FIX & PERM cell fixation and cell permeabilization kit (Life Technologies). For ROS generation, cells were stained with 5 μM MitoSOX red mitochondrial superoxide indicator (ThermoFisher Scientific) in a working solution for 30 minutes at 37° C. Cell cycle analysis was performed after 24 hours treatment with complex 6. Cells were harvested, fixed in cold 70% ethanol for 15 minutes, and stained with propidium iodide (PI) solution ([…] PI, 0.1% NP-40, 100 µg/mL PureLink RNase A, 0.1% sodium citrate) for 1 hour. The distribution of cells in different cell cycle phases was quantified using ModFit LT 4.0 software (Verity Software House, Topsham, ME, USA).
Whole-cell lysates were prepared using cold RIPA buffer [150 mM NaCl, 50 mM Tris-HCl (pH 8), 0.1% SDS, 1% Igepal, and 0.5% desoxycholate sodium] containing a protease inhibitor cocktail (Roche Diagnostics S.p.a., Milan, Italy), phosphatase inhibitors 1 mM Na3VO4 and 1 mM NaF (Sigma-Aldrich). Protein concentrations were determined using the BioRad protein assay (Bio-Rad Laboratories, Inc., CA, USA). Equal amounts of proteins were mixed with Laemmli buffer, separated in 4-20% SDS-PAGE (Criterion Precast Gel, BioRad), and blotted onto a nitrocellulose membrane (Amersham, GE Healthcare). Membrane strips were blocked with EveryBilot blocking buffer (Bio-Rad) and incubated at 4° C. overnight with primary antibodies probed with the appropriate antibodies (Table 2) and developed using Immobilon Western chemioluminescent HRP substrate. Images were acquired using a ChemiDoc XRS system (Bio-Rad).

20S proteasome = target: T1, 20S proteasome (Homo sapiens, UniProt P28074); test: 20S proteasome activity in lysates of treated cells; format: cell-based; conditions: OvCa cells treated 24 hours
T1 construct: endogenous in cells; host or cells: A2780, A2780cis and SKOV3 ovarian cancer cells, treated for 24 h and then lysed
Method: Proteasome activity (EC 3.4.25.1) was evaluated on the same cell lysates as TrxR using the 20S proteasome activity assay kit APT280 (Merck Millipore) and a computer-interfaced GeniusPlus microplate reader (Tecan Trading AG, Switzerland). The activity was normalized to the protein concentration and expressed as a percentage of control.

SKOV3 cells = test: Cytoskeleton organization, immunofluorescence confocal microscopy; format: cell-based, human; conditions: 24 hours treatment
Method: Cell migration was assessed using the in vitro wound healing assay. Briefly, cells were grown to confluence and then treated with complex 6. After 24 hours of treatment, the medium was removed and cells were washed then scraped with a pipet tip to create a “wound” in the monolayer and washed again. Fresh medium containing 2% FCS was added. Wounds were photographed at times 0, 24, and 48 hours using an inverted microscope (EclipseTS/100, Nikon, Instruments Europe BV Amsterdam, The Netherlands) at magnification 4. Migration was assessed by measuring the cell-free area (in pixels) with ImageJ-NIH (National Institutes of Health) tool software. The cytoskeleton organization was evaluated by culturing SKOV3 cells onto glass coverslips and performing immunofluorescence staining for α-tubulin and F-actin. SKOV3 cells were treated for 24 hours with complex 6, fixed in 4% paraformaldehyde, permeabilized with 0.5% Triton X-100, and incubated overnight with primary antibody (Table 1) at 4° C. Primary antibody was detected using the appropriate secondary antibody together with phallotoxins (Molecular Probes) and TO-PRO-3 (Thermo Fisher Scientific). Images were acquired using an SP8 confocal microscope (Leica).

SMILES: CC(C)c1cccc(C(C)C)c1-n1ccn(-c2c(C(C)C)cccc2C(C)C)[c]1=[Au+][PH](C1CCCCC1)(C1CCCCC1)C1CCCCC1.F[P-](F)(F)(F)(F)F [Complex 6, [Au(IPr)(C18H33P)] PF6]
- IC50 (A2780; 72 hours treatment, MTT): 140 ± 10 nM
- Cytotoxic activity ranking within the series (A2780; A2780 and A2780cis, Table 8): most potent
- Activity compared with cisplatin or auranofin in A2780 cells (A2780; comparison of IC50, Table 8): more active than cisplatin; also recorded: more active than auranofin
- mitROS generation in SKOV3-MCTSs (SKOV3-MCTSs; 24 hours): increased mitROS generation
- Caspase-3,7 activation in SKOV3-MCTSs (SKOV3-MCTSs; FLICA): caused the activation of caspase-3,7
- Annexin-V+ cells in SKOV3-MCTSs (SKOV3-MCTSs; annexin-V-FITC/7AAD, flow cytometry): caused an increase of annexin-V+ cells
- DNA-DSBs (γH2AX) in SKOV3-MCTSs (SKOV3-MCTSs; western blot): induced DNA-DSBs
- 20S proteasome activity (20S proteasome): decreased the 20S proteasome activity in a dose-dependent manner
- F-actin cytoskeleton organization (SKOV3 cells): irregular disposition and organization of the F-actin cytoskeleton
- α-tubulin distribution (SKOV3 cells): did not modify α-tubulin distribution
